Laboratory results reported in patent publication US6803457B1, “Compounds for the treatment of ischemia” (Pfizer, Inc., priority 1999, dated 2004).

SMILES | melting point [°C]
CNC(=O)[C@H]1O[C@@H](n2cnc3c(NCc4cc(Cl)ccc4OCc4cccc(OC)c4)ncnc32)[C@H](O)[C@@H]1N [Example 6, (2S,3S,4R,5R)3-Amino-5-{6-[5-chloro-2-(3-methoxy-benzyloxy)-benzylamino]-purin-9-yl}-4-hydroxytetrahydrofuran-2-carboxylic acid methylamide] | 102 to 108
CNC(=O)[C@H]1O[C@@H](n2cnc3c(NCc4cc(Cl)ccc4OCc4cc(OC)ccc4OC)ncnc32)[C@H](O)[C@@H]1N [Example 7, (2S,3S,4R,5R)3-Amino-5-{6-[5-chloro-2-(2,5-dimethoxy-benzyloxy)-benzylamino]-purin-9-yl}-4-hydroxytetrahydrofuran-2-carboxylic acid methylamide] | 112 to 115
CNC(=O)[C@H]1O[C@@H](n2cnc3c(NCc4cc(Cl)ccc4OCc4cccc(Cl)c4)ncnc32)[C@H](O)[C@@H]1N [Example 8, (2S,3S,4R,5R)3-Amino-5-{6-[5-chloro-2-(3-chloro-benzyloxy)-benzylamino]-purin-9-yl}-4-hydroxytetrahydrofuran-2-carboxylic acid methylamide] | 85 to 90
CNC(=O)[C@H]1O[C@@H](n2cnc3c(NCc4cc(Cl)ccc4OCc4ccc(Cl)cc4)ncnc32)[C@H](O)[C@@H]1N [Example 9, (2S,3S,4R,5R)3Amino-5-{6-[5-chloro-2-(4-chloro-benzyloxy)-benzylamino]-purin-9-yl}-4-hydroxytetrahydrofuran-2-carboxylic acid methylamide] | 88 to 92
CNC(=O)[C@H]1O[C@@H](n2cnc3c(NCc4cc(Cl)ccc4OCc4ccccc4Cl)ncnc32)[C@H](O)[C@@H]1N [Example 10, (2S,3S,4R,5R)3-Amino-5-{6-[5-chloro-2-(2-chloro-benzyloxy)-benzylamino]-purin-9-yl}-4-hydroxytetrahydrofuran-2-carboxylic acid methylamide] | 88 to 92
CNC(=O)[C@H]1O[C@@H](n2cnc3c(NCc4cc(Cl)ccc4OCc4ccc(C)cc4)ncnc32)[C@H](O)[C@@H]1N [Example 12, (2S,3S,4R,5R)3-Amino-5-{6-[5-chloro-2-(4-methyl-benzyloxy)-benzylamino]-purin-9-yl}-4-hydroxytetrahydrofuran-2-carboxylic acid methylamide] | 82 to 86
CNC(=O)[C@H]1O[C@@H](n2cnc3c(NCc4cc(Cl)ccc4OCc4ccccc4C)ncnc32)[C@H](O)[C@@H]1N [Example 13, (2S,3S,4R,5R)3-Amino-5-{6-[5-chloro-2-(2-methyl-benzyloxy)-benzylamino]-purin-9-yl}-4-hydroxytetrahydrofuran-2-carboxylic acid methylamide] | 76 to 80
CNC(=O)[C@H]1O[C@@H](n2cnc3c(NCc4cc(Cl)ccc4OCc4cccc(C)c4)ncnc32)[C@H](O)[C@@H]1N [Example 14, (2S,3S,4R,5R)3-Amino-5-{6-[5-chloro-2-(3-methyl-benzyloxy)-benzylamino]-purin-9-yl}-4-hydroxytetrahydrofuran-2-carboxylic acid methylamide] | 92 to 97
CNC(=O)[C@H]1O[C@@H](n2cnc3c(NCc4cc(Cl)ccc4OCc4ccccc4OC)ncnc32)[C@H](O)[C@@H]1N [Example 15, (2S,3S,4R,5R)3-Amino-5-{6-[5-chloro-2-(2-methoxybenzyloxy)benzylamino]-purin-9-yl}-4-hydroxytetrahydrofuran-2-carboxylic acid methylamide] | 102 to 123

More lines, now with the values ahead:

melting point [°C] | SMILES
212 to 218 | CNC(=O)[C@H]1O[C@@H](n2cnc3c(NCc4cc(Cl)ccc4OCC4OC(O)C(O)C(O)C4O)ncnc32)[C@H](O)[C@@H]1N (stereo partly drawn) [Example 2, (2S,3S,4R,5R)3-Amino-5-{6-[5-chloro-2-(3,4,5,6-tetrahydroxytetrahydropyran-2-ylmethoxy)benzylamino]purin-9-yl}-4-hydroxytetrahydrofuran-2-carboxylic acid methylamide]
99 to 108 | CNC(=O)[C@H]1O[C@@H](n2cnc3c(NCc4cc(Cl)ccc4OCCN4CCOCC4)ncnc32)[C@H](O)[C@@H]1N [Example 4, (2S,3S,4R,5R)3-Amino-5-{6-[5-chloro-2-(2-morpholin-4-ylethoxy)benzylamino]-purin-9-yl}-4-hydroxytetrahydrofuran-2-carboxylic acid methylamide]
107 to 117 | CNC(=O)[C@H]1O[C@@H](n2cnc3c(NCc4cc(Cl)ccc4OCC4CCC4)ncnc32)[C@H](O)[C@@H]1N [Example 5, (2S,3S,4R,5R)3-Amino-5-[6-(5-chloro-2-cyclobutylmethoxybenzylamino)-purin-9-yl]-4-hydroxytetrahydrofuran-2-carboxylic acid methylamide]
114 to 118 | CNC(=O)[C@H]1O[C@@H](n2cnc3c(NCc4cc(Cl)ccc4OCC4CCOC4)ncnc32)[C@H](O)[C@@H]1N (stereo partly drawn) [Example 11, (2S,3S,4R,5R)3-Amino-5-{6-[5-chloro-2-(tetrahydrofuran-3-ylmethoxy)-benzylamino]-purin-9yl}-4-hydroxytetrahydrofuran-2-carboxylic acid methylamide]
93 to 97 | CNC(=O)[C@H]1O[C@@H](n2cnc3c(NCc4cc(Cl)ccc4OCc4ccoc4)ncnc32)[C@H](O)[C@@H]1N [Example 16, (2S,3S,4R,5R)3-Amino-5-{6-[5-chloro-2-(furan-3-ylmethoxy)benzylamino]-purin-9-yl}-4-hydroxytetrahydrofuran-2carboxylic acid methylamide]
110.6 to 116.2 | CNC(=O)[C@H]1O[C@@H](n2cnc3c(NCc4cc(Cl)ccc4OCC4CCCC4)ncnc32)[C@H](O)[C@@H]1N [Example 18, (2S,3S,4R,5R)3-Amino-5-[6-(5-chloro-2-cyclopentylmethoxy-benzylamino)-purin-9-yl]-4-hydroxytetrahydrofuran-2-carboxylic acid methylamide]
132 to 161 | CNC(=O)[C@H]1O[C@@H](n2cnc3c(NCc4cc(Cl)ccc4OCC4CCOC4)ncnc32)[C@H](O)[C@@H]1N (stereo partly drawn) [Example 20, (2S,3S,4R,5R)3-Amino-5-{6-[5-chloro-2-(tetrahydro-furan-3-ylmethoxy)-benzylamino]-purin-9-yl}-4-hydroxy-tetrahydro-furan-2-carboxylic acid methylamide]
187 to 192 | CNC(=O)[C@H]1O[C@@H](n2cnc3c(NCc4cc(Cl)ccc4OCc4ccco4)ncnc32)[C@H](O)[C@@H]1N [Example 22, (2S,3S,4R,5R)3-Amino-5-{6-(5-chloro-2-(furan-2-ylmethoxy)benzylamino]purin-9-yl}-4-hydroxytetrahydrofuran-2-carboxylic acid methylamide]
85 to 88 | CNC(=O)[C@H]1O[C@@H](n2cnc3c(NCc4cc(Cl)ccc4OCc4cc(C)oc4C)ncnc32)[C@H](O)[C@@H]1N [Example 24, (2S,3S,4R,5R)3-Amino-5-{6-[5-chloro-2-(2,5-dimethylfuran-3-ylmethoxy)benzylamino]purin-9-yl}-4-hydroxytetrahydrofuran-2-carboxylic acid methylamide]
200 to 218 | CNC(=O)[C@H]1O[C@@H](n2cnc3c(NCc4cc(Cl)ccc4OCc4cccnc4)ncnc32)[C@H](O)[C@@H]1N [Example 25, (2S,3S,4R,5R)3-Amino-5-{6-[5-chloro-2-(pyridin-3-ylmethoxy)benzylamino]purin-9-yl}-4-hydroxytetrahydrofuran-2-carboxylic acid methylamide]
